Laboratory results published in patent US7425608B2, “Method of making metallopeptides” (Palatin Technologies, Inc., priority 1998, dated 2008).
Where two headings read alike, the source gives them in different places. *: point of attachment. Cbz = O=C(OCc1ccccc1)*

Assays:
[1] = cited from earlier work
[2] = molecular target: T1, human neutrophil elastase (HNE) (Homo sapiens, UniProt P08246); assay: Human neutrophil elastase inhibition, spectrophotometric assay with chromogenic p-nitroanilide substrate; type: biochemical; conditions: individually resynthesised ReO metallopeptides Z-Aaa-Ser-Cys-Val-NH2 (deconvolution of the most active pool)
T1 construct: purchased Sigma (St. Louis, Mo.)
T1 sequence (P08246 30-267): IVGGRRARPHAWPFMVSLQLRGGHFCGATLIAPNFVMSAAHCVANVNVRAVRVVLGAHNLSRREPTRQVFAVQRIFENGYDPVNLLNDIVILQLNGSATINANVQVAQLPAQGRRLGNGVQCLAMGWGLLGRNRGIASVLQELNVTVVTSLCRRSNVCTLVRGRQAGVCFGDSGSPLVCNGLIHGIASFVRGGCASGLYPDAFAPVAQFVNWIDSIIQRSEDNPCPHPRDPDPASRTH
Protocol: Purified human neutrophil elastase (HNE) was purchased from Sigma (St. Louis, Mo.). The assay was performed spectrophotometrically using a chromogenic p-nitroanilide substrate, MeOSuc-Ala-Ala-Pro-Val-pNA, also purchased from Sigma. The assay protocols were similar to those described by others (e.g., Nakajima K et al: J Biol Chem, 254:4027-4032, 1979). Briefly, 0.05 units of HNE were treated with 1 mM concentration of the library pool in the presence of p-nitroanilide substrate. Spectrophotometric measurement were made at a wavelength of 410 nm. […] Also, among this limited series of compounds, benzyloxycarbonyl group was identified as a preferred R group where Bbb was a Gly, Ala, or Ser residue.
The pool with highest activity, Z-Aaa-Ser-Cys-Val-NH2, was deconvoluted by an iterative resynthesis process. All five individual peptides in this pool were synthesized by the methodologies and protocols of Example 10. Each individual peptide was characterized by mass spectrometry and HPLC. A screening assay was performed as generally described in Example 11. The best results were obtained with Leu or Ile in the position Aaa in the peptide chain. […] Substitution of the three residues Ala, Phe, and Lys(N-Z) at Aaa yielded IC50 values in excess of 1,000 μM.

[3] = related to the ionic core charge of the metal complex

| Compound | compartmentalisation / excretion / passage across biological barriers [1, 3] | IC50 [2] | also measured |
| --- | --- | --- | --- |
| CCOC(=O)[C@H](C[S-])[N-]CCN[C@@H](C[S-])C(=O)OCC.[O-2].[Tc] [^99mTc-ECD, ethyl cysteinate dimer] | pass through the blood-brain barrier |  |  |
| C/C(=N\O)C(C)NCC(C)(C)CNC(C)/C(C)=N/O (stereo not shown) [^99mTc-HMPAO, hexamethylpropyleneamine oxime, metal not drawn] | pass through the blood-brain barrier |  |  |
| O=C(O)CNC(=O)CNC(=O)CNC(=O)CS [^99mTc-MAG3, mercaptoacetylglycylglycylglycine, metal not drawn] | excreted through the kidneys |  |  |
| Cbz-ISCV-NH2 |  | 179 µM |  |
| Z-Leu-Ser-Cys-Val-NH2 (Cbz-LSCV-NH2; not fully specified; printed as Z-Leu-Ser-Cys-Val-NH2) |  | 139 µM |  |
| Z-Lys(N,-Z)-Ser-Cys-Val-NH2 |  | > 1000 µM |  |
| methoxyisobutylisonitrile [^99mTc-MIBI] |  |  | compartmentalisation / excretion / passage across biological barriers ([1]; in vivo): compartmentalized in heart muscles |
